Assay results reported in US20080031868A1, “HUMAN LYSOZYME MEDICINE, ITS MANUFACTURING METHOD AND APPLICATION THEREOF” (priority 2005, published 2008).
Converted amounts (≈) assume the structure as drawn.

Legend:
[1] = tested on: Staphylococcus aureus MRSABAA-42; test: Bronchus pneumonia mice infected by Staphylococcus aureus MRSA BAA-42, treated by atomization inspiring; format: in vivo; details: for accumulative survival number: 30 mice; for accumulative survival number / survival rate (%): 14 days; for survival elevation rate (%): versus infected model group; for bacterial number: mice lung
[2] = tested on: Staphylococcus aureus MRSABAA-42; test: as above; format: in vivo; details: mice lung; atomization inspired 6.0; the 1th day
Description: A, atomization sucks gene recombinant Human Lysozyme (HLZ) cured bronchus pneumonia mice infected by Staphylococcus aureus MRSABAA-42
Choose the test lawn, after washing with the physiological saline, correcting by McB tubes for comparative tests bacterium solution concentration 2#MCF, turbidity of 2.7×10^11 CFU/ml, diluted with physiological saline separately into 10^−1, 10^−2, 10^−3 bacterium solution, drip the nose to infect for mice respectively (anaesthetize the mice with the pentobarbital first, 30 mg/kg, ip.), 0.05 ml a mouse. Observed the mice body changing, and killed parts of mice after infecting 48 h, fetch the whole lung to tissue homogenate, 10 times diluted by physiological saline, draw 0.1 m1 to MH agar plate surface, to cultivate last night 35° C., Gram staining, test under microscope, and count plate. At the same time recorded the number of death mice, and collect some mice tracheas, bronchus, lung tissue and do pathology tissue observing.
It is called medial lethal dose (LD50) that bacterium amount caused mice appearing lung pharmacology change and 50% died. LD50was used as experimental treatment amount.
Infected mice is divided into 10 groups at random according to the weight, 30 every groups.
Designed dosage: The concentration of recombinant human lysozyme medicine was 15000 u/ml as in clinical atomization therapy. Its dose was 15000 u per time and administrated one time everyday, I.e 0.5 mg per time everyday. The dose was 1.3×10-3 mg a mice (counted by weight of 20 g). […] To ensure the breathing amount of lysozyme, the breathing time were extended for 0.5 hour. Based on 0.5 mg/ml, the concentration of 0.25 mg/ml, 1.0 mg/ml and 2.0 mg/ml were set respectively as treatment dose.
The same group mice were put into the ultrasonic atomizer and then treated with human lysozyme atomized in the compression sprayer (PARL.BOY), twice a day, 5 days in succession.
Every group, from the infected day to calculae, the animal incidence and death were recorded 14 days in succession. Every group collected 2-3 mice and killed them the 14th day after infecting, did bacteriology detection after lung homogenate, killed surplus animal to fetch the trachea, bronchus, fixed in 10% of the formaldehyde solution after weighing, did pathology check.
The bacterial culture: A part of mice were killed after infecting 24 h, fetched the whole lung weighting, added 2 ml degerming PBS solution 10 times diluted, draw 0.1 mL to MH agar plate surface, to cultivate last night 35° C., counted in the cultivation plateform of 30-300 CF, if the two close level tissue fluid is 30-300 CFU, counted the low density (make 3 plateforms at the same time each tissue fluid, calculate the average). Collected 2 mice to do bacterial culture in every group at random in 5, 7, 14 days after administration.
Pathology detection: After dissecting the mice, observed the trachea, bronchus, syncretio of lung, chest wall and membrana pleuralis, the volume of lung and size of lung focus, the lung surface was congested, hydroncus, consolidation and atelectasis by the naked eye. Took out the trachea, bronchus and the whole lung tissue to fixed with 10% of the formaldehyde solution, draw materials.

[3] = 0.75 mg/ml atomization inspired

## CC[C@H]1OC(=O)[C@H](C)[C@@H](O[C@H]2C[C@@](C)(OC)[C@@H](O)[C@H](C)O2)[C@H](C)[C@@H](O[C@@H]2O[C@H](C)C[C@H](N(C)C)[C@H]2O)[C@](C)(OC)C[C@@H](C)C(=O)[C@H](C)[C@@H](O)[C@]1(C)O [Clarithromycin, reference compound]
[1]; [3]
  average survival day (day, x ± s): 7.67 ± 4.01 days
  accumulative survival number: 5
  survival rate (%): 16.7%
  survival elevation rate (%): 0.00%
[1]; 0.75 mg/ml atomization inspired, day 1
  Death number(piece): 0 piece
[1]; 0.75 mg/ml atomization inspired, day 2
  Death number(piece): 0 piece
[1]; 0.75 mg/ml atomization inspired, day 3
  Death number(piece): 4 piece
[1]; 0.75 mg/ml atomization inspired, day 4
  Death number(piece): 4 piece
[1]; 0.75 mg/ml atomization inspired, day 5
  Death number(piece): 3 piece
[1]; 0.75 mg/ml atomization inspired, day 6
  Death number(piece): 4 piece
[1]; 0.75 mg/ml atomization inspired, day 7
  Death number(piece): 4 piece
[1]; 0.75 mg/ml atomization inspired, day 8
  Death number(piece): 2 piece
[1]; 0.75 mg/ml atomization inspired, day 9
  Death number(piece): 3 piece
[1]; 0.75 mg/ml atomization inspired, day 10
  Death number(piece): 1 piece
[1]; 0.75 mg/ml atomization inspired, day 11
  Death number(piece): 0 piece
[1]; 0.75 mg/ml atomization inspired, day 12
  Death number(piece): 0 piece
[1]; 0.75 mg/ml atomization inspired, day 13
  Death number(piece): 0 piece
[1]; 0.75 mg/ml atomization inspired, day 14
  Death number(piece): 0 piece
[1]; 1.5 mg/ml atomization inspired
  average survival day (day, x ± s): 8.70 ± 4.65 days
  accumulative survival number: 12
  survival rate (%): 40.0%
  survival elevation rate (%): 23.3%
[1]; 1.5 mg/ml atomization inspired, day 1
  Death number(piece): 0 piece
[1]; 1.5 mg/ml atomization inspired, day 2
  Death number(piece): 0 piece
[1]; 1.5 mg/ml atomization inspired, day 3
  Death number(piece): 4 piece
[1]; 1.5 mg/ml atomization inspired, day 4
  Death number(piece): 4 piece
[1]; 1.5 mg/ml atomization inspired, day 5
  Death number(piece): 3 piece
[1]; 1.5 mg/ml atomization inspired, day 6
  Death number(piece): 4 piece
[1]; 1.5 mg/ml atomization inspired, day 7
  Death number(piece): 0 piece
[1]; 1.5 mg/ml atomization inspired, day 8
  Death number(piece): 2 piece
[1]; 1.5 mg/ml atomization inspired, day 9
  Death number(piece): 0 piece
[1]; 1.5 mg/ml atomization inspired, day 10
  Death number(piece): 1 piece
[1]; 1.5 mg/ml atomization inspired, day 11
  Death number(piece): 0 piece
[1]; 1.5 mg/ml atomization inspired, day 12
  Death number(piece): 0 piece
[1]; 1.5 mg/ml atomization inspired, day 13
  Death number(piece): 0 piece
[1]; 1.5 mg/ml atomization inspired, day 14
  Death number(piece): 0 piece
[1]; 3 mg/ml atomization inspired
  average survival day (day, x ± s): 11.20 ± 3.53 days
  accumulative survival number: 18
  survival rate (%): 60.0%
  survival elevation rate (%): 43.3%
[1]; 3 mg/ml atomization inspired, day 1
  Death number(piece): 0 piece
[1]; 3 mg/ml atomization inspired, day 2
  Death number(piece): 0 piece
[1]; 3 mg/ml atomization inspired, day 3
  Death number(piece): 0 piece
[1]; 3 mg/ml atomization inspired, day 4
  Death number(piece): 0 piece
[1]; 3 mg/ml atomization inspired, day 5
  Death number(piece): 0 piece
[1]; 3 mg/ml atomization inspired, day 6
  Death number(piece): 4 piece
[1]; 3 mg/ml atomization inspired, day 7
  Death number(piece): 4 piece
[1]; 3 mg/ml atomization inspired, day 8
  Death number(piece): 4 piece
[1]; 3 mg/ml atomization inspired, day 9
  Death number(piece): 0 piece
[1]; 3 mg/ml atomization inspired, day 10
  Death number(piece): 0 piece
[1]; 3 mg/ml atomization inspired, day 11
  Death number(piece): 0 piece
[1]; 3 mg/ml atomization inspired, day 12
  Death number(piece): 0 piece
[1]; 3 mg/ml atomization inspired, day 13
  Death number(piece): 0 piece
[1]; 3 mg/ml atomization inspired, day 14
  Death number(piece): 0 piece
[1]; 6 mg/ml atomization inspired
  average survival day (day, x ± s): 11.60 ± 3.48 days
  accumulative survival number: 20
  survival rate (%): 66.7%
  survival elevation rate (%): 50.0%
[1]; 6 mg/ml atomization inspired, day 1
  Death number(piece): 0 piece
[1]; 6 mg/ml atomization inspired, day 2
  Death number(piece): 0 piece
[1]; 6 mg/ml atomization inspired, day 3
  Death number(piece): 0 piece
[1]; 6 mg/ml atomization inspired, day 4
  Death number(piece): 0 piece
[1]; 6 mg/ml atomization inspired, day 5
  Death number(piece): 0 piece
[1]; 6 mg/ml atomization inspired, day 6
  Death number(piece): 4 piece
[1]; 6 mg/ml atomization inspired, day 7
  Death number(piece): 4 piece
[1]; 6 mg/ml atomization inspired, day 8
  Death number(piece): 2 piece
[1]; 6 mg/ml atomization inspired, day 9
  Death number(piece): 0 piece
[1]; 6 mg/ml atomization inspired, day 10
  Death number(piece): 0 piece
[1]; 6 mg/ml atomization inspired, day 11
  Death number(piece): 0 piece
[1]; 6 mg/ml atomization inspired, day 12
  Death number(piece): 0 piece
[1]; 6 mg/ml atomization inspired, day 13
  Death number(piece): 0 piece
[1]; 6 mg/ml atomization inspired, day 14
  Death number(piece): 0 piece
[1]; dose 1.5
  The 4th day (bacterial number, head incomplete): 3.4 ± 0.25
[1]; dose 1.5, the 5th day
  The 5th day (bacterial number, head incomplete): 64.40 ± 15.69
[1]; dose 3
  The 4th day (bacterial number, head incomplete): 2.5 ± 0.22
[1]; dose 3, the 5th day
  The 5th day (bacterial number, head incomplete): 60.70 ± 13.98
[1]; dose 6
  The 4th day (bacterial number, head incomplete): 2.2 ± 0.12
[1]; dose 6, the 5th day
  The 5th day (bacterial number, head incomplete): 57.60 ± 15.37
[1]; atomization inspired 1.5, 0 day
  bacterial number: 350 ± 21.5 CFU/mL
[1]; atomization inspired 1.5, the 1th day
  bacterial number: 247.10 ± 21.31 CFU/mL
[1]; atomization inspired 1.5, the 3rd day
  bacterial number: 146.90 ± 13.55 CFU/mL
[1]; atomization inspired 1.5, the 5th day
  bacterial number: 64.40 ± 15.69 CFU/mL
[1]; atomization inspired 1.5, the 14th day
  bacterial number: 28.0 ± 2.60 CFU/mL
[1]; atomization inspired 3.0, 0 day
  bacterial number: 350 ± 21.5 CFU/mL
[1]; atomization inspired 3.0, the 1th day
  bacterial number: 246.30 ± 19.03 CFU/mL
[1]; atomization inspired 3.0, the 3rd day
  bacterial number: 141.10 ± 18.54 CFU/mL
[1]; atomization inspired 3.0, the 5th day
  bacterial number: 60.70 ± 13.98 CFU/mL
[1]; atomization inspired 3.0, the 14th day
  bacterial number: 24.0 ± 2.00 CFU/mL
[1]; atomization inspired 6.0, 0 day
  bacterial number: 350 ± 21.5 CFU/mL
[1]; atomization inspired 6.0, the 3rd day
  bacterial number: 134.60 ± 13.58 CFU/mL
[1]; atomization inspired 6.0, the 5th day
  bacterial number: 57.60 ± 15.37 CFU/mL
[1]; atomization inspired 6.0, the 14th day
  bacterial number: 10.0 ± 8.00 CFU/mL
[1]; mice survival over 14 days, Bliss method
  95% feasible limits of ED50: 1.76 to 4.02 mg/mL
[1]; mice survival over 14 days, Bliss method, atomization inspired
  ED50 (median effective dose): 2.55 mg/mL (≈ 3.41 mM)
[2]
  bacterial number: 241.9 ± 16.62 CFU/mL
